Experimental findings from US20250326777A1, “COMPOUNDS, COMPOSITIONS AND METHODS THEREOF” (HEPAITECH (BEIJING) BIOPHARMA TECHNOLOGY CO., LTD., priority 2022, published 2025) are described below.

T1 sequence (Q96LA9 whole entry): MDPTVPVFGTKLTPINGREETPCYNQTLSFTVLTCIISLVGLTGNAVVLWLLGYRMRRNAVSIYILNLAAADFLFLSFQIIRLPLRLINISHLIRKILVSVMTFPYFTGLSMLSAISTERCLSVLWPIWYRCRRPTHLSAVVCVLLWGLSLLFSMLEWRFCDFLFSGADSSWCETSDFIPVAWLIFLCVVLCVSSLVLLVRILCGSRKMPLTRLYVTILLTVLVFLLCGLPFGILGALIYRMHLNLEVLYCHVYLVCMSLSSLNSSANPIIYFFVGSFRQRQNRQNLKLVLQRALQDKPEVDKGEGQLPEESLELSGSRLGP

The first test concerns the target T1, human MRGPRX4 (Homo sapiens, UniProt Q96LA9).
T1 construct: expressed in transfected cells
Nature of the test: MRGPRX4 antagonist calcium (FLIPR, Fluo-8) assay in HEK293T cells stably expressing human MRGPRX4, agonist 0.2 μM deoxycholic acid-3-phosphoric acid. The class given is cell-based. The note with it: HEK293T cells stably expressing human MRGPRX4; antagonist mode; top conc. 30 μM, ten 3-fold serial dilutions; C may also mean <40% inhibition at 2 μM; read-out: Antagonist activity (IC50 class). As for the experimental part:
HEK293T cells stably expressing human MRGPRX4 were cultured in DMEM medium supplements with 10% FBS, 100 U/mL penicillin-streptomycin, 20 mM HEPES and 1 μg/mL puromycin at 37° C. with 5% (v/v) CO2. One day before test, the cells were detached using TrypLE™ Express and counted using cell counter. In a 384-well plate cells were seeded at a density of 20,000 cells/well in 20 uL/well planting medium (DMEM medium supplements with 5% FBS, 100 U/mL penicillin-streptomycin and 20 mM HEPES), and incubated overnight at 37° C. with 5% (v/v) CO2. On the day of experiments, the dye solution, prepared following the manufacture's instruction of the Screen Quest™ Fluo-8 No Wash Calcium Assay Kit, was added to each well (20 μL/well) of the cell plate. The cell plate was incubated at 25° C. for 1 hour. Test compounds in different doses were transferred to the cell plate by FLIPR and the plate was kept in the dark at 25° C. for 30 minutes. The agonist solution, 0.2 μM of deoxycholic acid-3-phosphoric acid in assay buffer, was added to each well of the plate. The plate was read for 160 sec with 1 sec interval to obtain data of antagonist mode in FLIPR. For various compounds, IC50 values were calculated by fitting % inhibition against log of compound concentrations (top conc. 30 μM, ten 3-fold serial dilutions) with Hill equation using XLfit. […] Those skilled in the art appreciate that IC50 of various compounds can be assessed in accordance with the present disclosure.
As usually defined, the IC50 is the point on the concentration scale where inhibition reaches its midpoint. As to `O=C(O)c1cccc([C@@H]2Cc3cc(C(F)(F)F)ccc3O2)c1F` [Compound 52A], the IC50 is < 1 µM.
Same read-out and setting: the figure for `O=C(O)c1cccc([C@H]2Cc3cc(C(F)(F)F)ccc3O2)c1F` [Compound 52B] is > 10 µM; for `Fc1c(-c2nnn[nH]2)cccc1[C@@H]1Cc2cc(C(F)(F)F)ccc2O1` [Compound 88] it is < 1 µM.
In the case of `Fc1cc(-c2nnn[nH]2)cc(C2Cc3cc(C(F)(F)F)ccc3O2)c1` (stereo not shown) [Compound 91], the IC50 was < 1 µM.
As for `Fc1c(-c2nnn[nH]2)cccc1C1Cc2c(ccc3ccccc23)O1` (stereo not shown) [Compound 92], the half-maximal inhibitory concentration (IC50) was < 1 µM.
Regarding `Cc1cc(-c2nnn[nH]2)cc(C2Cc3cc(C(F)(F)F)ccc3O2)c1` (stereo not shown) [Compound 94], the IC50 is < 1 µM.
The same measure, in the same setting: the figure for `Fc1ccc(C2Cc3c(ccc4ccccc34)O2)cc1-c1nnn[nH]1` (stereo not shown) [Compound 97] is < 1 µM; for `Fc1ccc(C2Cc3cc(C(F)(F)F)ccc3O2)cc1-c1nnn[nH]1` (stereo not shown) [Compound 98] it is < 1 µM; for `Cc1cc(-c2nnn[nH]2)c(F)c(C2Cc3cc(C(F)(F)F)ccc3O2)c1` (stereo not shown) [Compound 99] it is < 1 µM.
Same read-out and setting: the figure for `N#Cc1cc(-c2nnn[nH]2)cc(C2Cc3cc(C(F)(F)F)ccc3O2)c1` (stereo not shown) [Compound 101] is < 1 µM.
Same read-out and setting: the figure for `Fc1c(-c2nnn[nH]2)cccc1[C@@H]1Cc2c(ccc3ccccc23)O1` [Compound 102] is < 1 µM; for `Fc1ccc([C@@H]2Cc3c(ccc4ccccc34)O2)cc1-c1nnn[nH]1` [Compound 103] it is < 1 µM.
On to `Fc1ccc([C@@H]2Cc3cc(C(F)(F)F)ccc3O2)cc1-c1nnn[nH]1` [Compound 104], for which the half-inhibitory concentration (IC50) is < 1 µM.
With `O=c1[nH]c(-c2cccc([C@@H]3Cc4cc(C(F)(F)F)ccc4O3)c2F)no1` [Compound 105], the half-maximal inhibitory concentration (IC50) was < 1 µM.
On the same count and under the same terms, the figure for `Cn1c(-c2ccc(C(=O)O)cc2)cc2ccc(C(F)(F)F)cc21` [Example 1] is 1 to 10 µM.
The same measure, in the same setting: the figure for `Cn1c(-c2ccc(F)c(C(=O)O)c2)cc2ccc(C(F)(F)F)cc21` [Example 2] is > 10 µM.
With `O=C(O)c1ccc(-c2cc3ccc(C(F)(F)F)cc3[nH]2)cc1` [Example 3], the IC50 is > 10 µM.
Still for that read-out and setting: the figure for `Cn1c(-c2cccc(C(=O)O)c2)cc2ccc(C(F)(F)F)cc21` [Example 4] is > 10 µM.
As for `CC(C)n1c(-c2ccc(C(=O)O)cc2)cc2ccc(C(F)(F)F)cc21` [Example 5], the half-inhibitory concentration (IC50) was in the range of 1 to 10 µM.
Still for that read-out and setting: under `Cn1c(-c2ccc(C(=O)O)cc2)cc2ccc(C#N)cc21` [Example 6] stands > 10 µM; under `Cn1c(-c2cccc(C(=O)O)c2)cc2ccc(C#N)cc21` [Example 7], > 10 µM; under `Cn1c(-c2ccc(C(=O)O)cc2)cc2ccc(C(=O)O)cc21` [Example 9], > 10 µM.
Still for that read-out and setting: the figure for `COc1ccc2cc(-c3ccc(C(=O)O)cc3)n(C)c2c1` [Example 10] is > 10 µM; for `CC(C)n1c(-c2ccc(C(=O)O)cc2)cc2cc(Cl)c(Cl)cc21` [Example 11] it is > 10 µM.
On the same count and under the same terms, the figure for `Cn1c(-c2ccc(C(=O)O)cc2)cc2cc(Cl)c(Cl)cc21` [Example 12] is > 10 µM.
Consider `Cn1c(-c2ccc(C(=O)O)cc2)cc2c(Cl)cc(C(F)(F)F)cc21` [Example 13], for which the IC50 lay within 1 to 10 µM.
In the case of `Cn1c(-c2ccc(C(=O)O)cc2F)cc2ccc(C(F)(F)F)cc21` [Example 14], the IC50 fell in the range of 1 to 10 µM.
Still for that read-out and setting: under `Cn1c(-c2ccc(C(=O)O)cc2)cc2cc(C(F)(F)F)ccc21` [Example 15] stands 1 to 10 µM; under `CCCn1c(-c2ccc(C(=O)O)cc2)cc2ccc(C(F)(F)F)cc21` [Example 16], 1 to 10 µM.
The same measure, in the same setting: under `CC(C)Cn1c(-c2ccc(C(=O)O)cc2)cc2ccc(C(F)(F)F)cc21` [Example 17] stands 1 to 10 µM.
The same measure, in the same setting: the figure for `CCCn1c(-c2ccc(C(=O)O)cc2F)cc2ccc(C(F)(F)F)cc21` [Example 18] is < 1 µM; for `CCCn1c(-c2ccc(C(=O)O)c(F)c2)cc2ccc(C(F)(F)F)cc21` [Example 19] it is 1 to 10 µM; for `CCCn1c(-c2ccc(C(=O)O)cc2)cc2ccc(F)cc21` [Example 20] it is > 10 µM.
For `CCCn1c(-c2ccc(C(=O)O)cc2)cc2ccc(OC(F)(F)F)cc21` [Example 21], the IC50 is > 10 µM.
On the same count and under the same terms, under `Cn1c(-c2ccc(C(=O)O)cc2)cc2c(-c3ccccc3)cccc21` [Example 22] stands > 10 µM; under `CCCn1c(-c2ccc(C(=O)O)cc2)cc2ccc(-c3ccccc3)cc21` [Example 23], > 10 µM.
On the same count and under the same terms, under `CCCn1c(-c2ccc(C(=O)O)cc2)cc2ccc(S(C)(=O)=O)cc21` [Example 24] stands > 10 µM.
Still for that read-out and setting: under `Cn1c(-c2ccc(C(=O)O)cc2)cc2cccc(-c3ccccc3)c21` [Example 25] stands > 10 µM; under `O=C(O)c1ccc(-c2cc3ccc(C(F)(F)F)cc3n2Cc2ccccc2)cc1` [Example 26], > 10 µM; under `O=C(O)c1ccc(-c2cc3ccc(C(F)(F)F)cc3n2C2CCCC2)cc1` [Example 27], 1 to 10 µM.
For the compound `O=C(O)c1ccc(-c2cc3ccc(C(F)(F)F)cc3n2C2CCC2)cc1` [Example 28], the IC50 lay within 1 to 10 µM.
Turning to `O=C(O)c1ccc(-c2cc3ccc(C(F)(F)F)cc3n2C2CCCCC2)cc1` [Example 29], the 50% inhibitory concentration (IC50) lay within 1 to 10 µM.
`O=C(O)c1ccc(-c2cc3ccc(C(F)(F)F)cc3n2C2CCCC2)c(F)c1` [Example 30]: the IC50 is < 1 µM.
The same measure, in the same setting: under `O=C(O)c1ccc(-c2cc3ccc(C(F)(F)F)cc3n2C2CCCC2)cc1F` [Example 31] stands 1 to 10 µM; under `O=C(O)c1cccc(-c2cc3ccc(C(F)(F)F)cc3n2C2CCCC2)c1F` [Example 32], > 10 µM; under `CC(C)n1c(-c2ccc(C(=O)O)cc2)cc2c(Cl)cc(C(F)(F)F)cc21` [Example 33], > 10 µM.
Still for that read-out and setting: under `O=C(O)c1ccc(-c2cc3ccc(C(F)(F)F)cc3n2-c2ccccc2)cc1` [Example 34] stands 1 to 10 µM; under `O=C(O)c1ccc(-c2cc3ccc(C(F)(F)F)cc3n2-c2ccccc2)cc1F` [Example 35], > 10 µM.
Same read-out and setting: under `O=C(O)c1ccc(-c2cc3ccc(C(F)(F)F)cc3n2-c2ccccc2)c(F)c1` [Example 36] stands > 10 µM.
Turning to `Cn1c(-c2ccc(C(=O)O)cc2)c(F)c2ccc(C(F)(F)F)cc21` [Example 37], the IC50 was > 10 µM.
Regarding `O=C(O)c1ccc(-c2[nH]c3cc(C(F)(F)F)ccc3c2F)cc1` [Example 38], the IC50 was > 10 µM.
Same read-out and setting: the figure for `Cc1c(-c2ccc(C(=O)O)cc2)n(C)c2cc(C(F)(F)F)ccc12` [Example 39] is > 10 µM.

Staying with this test, now noted: HEK-293T; single concentration 0.5 μM; HEK293T cells stably expressing human MRGPRX4.
Broadly, the inhibition is the change of the read-out against control, counted positive when it falls. `FC(F)(F)c1ccc2c(c1)CC(c1cc(-c3nnn[nH]3)cc(C3CC3)c1)O2` (stereo not shown) [Compound 90]: the inhibition at 0.5 µM was 27%.
On the same count and under the same terms, the figure for `FC(F)(F)c1ccc2c(c1)CC(c1cccc(-c3nnn[nH]3)c1)O2` (stereo not shown) [Compound 93] is 24%; for `Cc1ccc2c(c1)CC(c1cccc(-c3nnn[nH]3)c1F)O2` (stereo not shown) [Compound 95] it is 8.6%; for `Fc1c(-c2nnn[nH]2)cccc1C1Cc2cc(OC(F)(F)F)ccc2O1` (stereo not shown) [Compound 96] it is 3.7%.

The same test, now with this note: HEK-293T; single concentration 2 μM; HEK293T cells stably expressing human MRGPRX4.
With `Fc1c(-c2nnn[nH]2)cccc1[C@H]1Cc2cc(C(F)(F)F)ccc2O1` [Compound 89], the inhibition at 2 µM was 61%.

The same test, now with this note: S enantiomer 52A versus 52B; see Table 1.
For `O=C(O)c1cccc([C@@H]2Cc3cc(C(F)(F)F)ccc3O2)c1F` [Compound 52A], the “MRGPRX4 inhibition activity, comparison of enantiomers” value was “much higher MRGPRX4 inhibition activity than 52B”.
